Measured values as given in patent US20030130343A1, “Fat accumulation-modulating compounds” (AdipoGenix, Inc., priority 2001, published 2003).

Experiments:
[1] = tested on: primary human subcutaneous preadipocytes; test: High throughput screening of compound efficacy: fluorescent fatty acid (FA*) accumulation in differentiating human preadipocytes; format: cell-based; set-up: key to Relative Efficacy: “+++” designates a greater in vitro efficacy than “++”; “++”, which in turn is greater than “+”; “+”; details: for Relative Efficacy: inhibitors of fatty acid accumulation into differentiating adipocytes at a concentration of 100 nM
Method: Protocol for High Throughput Screening of Compound Efficacy on Human Preadipocytes Up to five cell strains of banked primary human subcutaneous preadipocytes were used for high throughput screening. […] Cells were split up to four times to produce enough cells for screening. […] On day zero, cells were incubated with growth medium to induce differentiation of preadipocytes into adipocytes (characterized by cell rounding, formation of triglyceride droplets, etc.). Growth medium was changed every three days. On day six, cells were incubated in triplicate with test compounds at various concentrations. […] Cell plates were prewashed with FAB+, and then FA* was added. Cells were incubated with FA* for four hours, and then postwashed with FAB+ to remove unincorporated FA*. Cellular fluorescence of triglyceride droplets that have incorporated FA* was measured on a microplate reader. Efficacy of compounds on inhibiting FA* accumulation was determined by the following calculation: […]

mice = details: single injections; cited from earlier work
[2] = tested on: primary human subcutaneous preadipocytes; details: at 10 μM; Alamar Blue
Method: Subsequent determination of compound toxicity was measured by incubating cells with Alamar Blue (an indicator of cellular viability, purchased from BioSource International Inc., Camarillo, Calif., USA) for three to four hours before measuring fluorescence of the reduced compound. Toxicity of compounds was determined by the following calculation:
% Toxicity=100−(sample fluorescence/negative control fluorescence*100)

With `O=C(Nc1ccncc1)c1cc([N+](=O)[O-])ccc1Cl` [AGX-0104] the “Relative Efficacy” value [1] was “+++”.
With `O=C(Nc1cccnc1)c1cc([N+](=O)[O-])ccc1Cl` [AGX-0105] the “Relative Efficacy” value [1] was “+++”.
In the case of `Cc1cc(NC(=O)c2cc([N+](=O)[O-])ccc2Cl)no1` [AGX-0114], the “Relative Efficacy” value [1] was “++”.
In the case of `C=C1C(=O)OC(CCCCCCCC)C1C(=O)O` (stereo not drawn) [C75], the “ate less than untreated littermates consumed” value (mice) is listed as 90%.
In the case of `N#CC(C#N)=NNc1ccc(OC(F)(F)F)cc1` [FCCP, carbonyl cyanide p-(trifluoromethoxy)-phenylhydrazone], the Emax at 10 µM ([1]; Homo sapiens, at 10 μM, read-out: % Efficacy (inhibiting FA* accumulation)) was 100% and the “% Toxicity” value [2] was 100%.
